What all share (assay type): in vivo
In assay [1] the test system is male CD1 mice on high-cholesterol diet. The assay is described as follows: Plasma HDL-cholesterol levels in male CD1 mice on high-cholesterol diet. To be noted: for % of increase HDL-cholesterol: VS Cont. (high-cholesterol diet control, group 1); for HDL-cholesterol: plasma, mean values ± S.E., oral twice a day for 17 days and one time on day 18, blood 8 h from last treatment, post-absorptive, monacolin K 2, fish oil 200, hexacosanol 25, resveratrol 5, Coenzyme Q10 50, vitamin B6 0.3, vitamin B12 0.25, L-carnitine 20 mg/kg. The method, then:
(§1) Male CD 1 mice on a high-cholesterol diet (DP/104, Altromin-Rieper) for about 25 days were used. An acclimatization period of seven days was allowed before the start of the high-cholesterol diet.
(§2) Mice were housed inside cages with stainless steel cover-feed and sterilized and dust-free bedding cobs. Animals were housed under a light-dark cycle, keeping temperature and humidity constant. Parameters of the animal rooms are assessed as follows: 22±2° C. temperature, 55±10% relative humidity, about 15-20 filtered air changes/hour and 12 hours circadian cycle of artificial light (7 a.m., 7 p.m.). The environmental conditions were monitored.
(§3) Mice were divided into groups (10 mice per group) and treated orally (1 mL) twice daily with the compounds of the invention or their combinations at the doses reported in the following:
(§4) monacolin K 2 mg/kg (dissolved in water);
(§5) fish oil 200 mg/kg (dissolved in ethanol);
(§6) Hexacosanol 25 mg/kg (dissolved in ethanol);
(§7) resveratrol 5 mg/kg (dissolved in ethanol);
(§8) Coenzyme Q10 50 mg/kg (dissolved in water);
(§9) Vitamin B6 0.3 mg/kg (dissolved in water);
(§10) Vitamin B12 0.25 mg/kg (dissolved in water);
(§11) L-carnitine 20 mg/kg (dissolved in water).
(§12) At the start of treatment, the body weight of the animals was checked and monitoring of the animals' consumption of water and feed was scheduled.
(§13) On day 18, plasma cholesterol, triglyceride and HDL cholesterol were evaluated. […]

Assay [2] has the same test system. The experiment in a line: Plasma triglycerides levels in male CD1 mice on high-cholesterol diet. To be noted: for % Reduction triglycerides: VS Cont. (high-cholesterol diet control, group 1); for Triglycerides (mg/dL) Mean values ± S.E.: plasma, oral twice a day for 17 days and one time on day 18, blood 8 h from last treatment, post-absorptive, monacolin K 2, fish oil 200, hexacosanol 25, resveratrol 5, Coenzyme Q10 50, vitamin B6 0.3, vitamin B12 0.25, L-carnitine 20 mg/kg. The arrangement: % Reduction triglycerides: concentration or dose not given beside the values. The method, then:
as §1, §2, §3, §4, §5, §6, §7, §8, §9, §10, §11, §12, §13

Assay [3] has the same test system. The assay is described as follows: Plasma total cholesterol levels in male CD1 mice on high-cholesterol diet. The arrangement: % Reduction total cholesterol: concentration or dose not given beside the values. To be noted: for % Reduction total cholesterol: VS Cont. (high-cholesterol diet control, group 1); for Total-cholesterol (mg/dL) Mean values ± S.E.: plasma, oral twice a day for 17 days and one time on day 18, blood 8 h from last treatment, post-absorptive, monacolin K 2, fish oil 200, hexacosanol 25, resveratrol 5, Coenzyme Q10 50, vitamin B6 0.3, vitamin B12 0.25, L-carnitine 20 mg/kg. The method, then:
as §1, §2, §3, §4, §5, §6, §7, §8, §9, §10, §11, §12, §13

7 molecules from patent US9125903B2, “Composition useful for the treatment of lipid metabolism disorders” (SIGMA-TAU INDUSTRIE FARMACEUTICHE RIUNITE, S.P.A., priority 2011, dated 2015) can be followed below.

As for `COC1=C(OC)C(=O)C(C/C=C(\C)CC/C=C(\C)CC/C=C(\C)CC/C=C(\C)CC/C=C(\C)CC/C=C(\C)CC/C=C(\C)CC/C=C(\C)CC/C=C(\C)CCC=C(C)C)=C(C)C1=O` [Coenzyme Q10], in assay [1], the “% of increase HDL-cholesterol” value is on record as “+4%” and the “HDL-cholesterol” value was found to be 23.9 ± 2.2 mg/dL. Also, in assay [2], the “% Reduction triglycerides” value was −3% and the “Triglycerides (mg/dL) Mean values ± S.E.” value is given as 196.4 ± 22.1 mg/dL. In assay [3], the “% Reduction total cholesterol” value is given as −3% and the “Total-cholesterol (mg/dL) Mean values ± S.E.” value (“Total-cholesterol” for short) is on record as 355.8 ± 25.2 mg/dL.
For `CCCCCCCCCCCCCCCCCCCCCCCCCCO` [Hexacosanol], in assay [1], the “% of increase HDL-cholesterol” value is recorded as “+15%” and the “HDL-cholesterol” value worked out at 26.4 ± 2.0 mg/dL. In assay [2], the “% Reduction triglycerides” value was −15% and the “Triglycerides (mg/dL) Mean values ± S.E.” value is 172.1 ± 12.3 mg/dL. Besides, in assay [3], the “% Reduction total cholesterol” value is given as −16% and the “Total-cholesterol” value was determined as 307.2 ± 23.9 mg/dL.
As for `C[N+](C)(C)C[C@H](O)CC(=O)[O-]` [L-carnitine], in assay [1], the “% of increase HDL-cholesterol” value is listed as “+21%” and the “HDL-cholesterol” value worked out at 27.8 ± 2.1 mg/dL. Also, in assay [2], the “% Reduction triglycerides” value is −5% and the “Triglycerides (mg/dL) Mean values ± S.E.” value turned out to be 192.3 ± 16.4 mg/dL. Moreover, in assay [3], the “% Reduction total cholesterol” value is reported as −12% and the “Total-cholesterol” value amounted to 322.8 ± 21.1 mg/dL.
Turning to `CC[C@H](C)C(=O)O[C@H]1C[C@@H](C)C=C2C=C[C@H](C)[C@H](CC[C@@H]3C[C@@H](O)CC(=O)O3)[C@H]21` [Monacolin K, monacolin K], in assay [1], the “% of increase HDL-cholesterol” value is “+10%” and the “HDL-cholesterol” value was 25.3 ± 2.1 mg/dL. Further, in assay [2], the “% Reduction triglycerides” value was −8% and the “Triglycerides (mg/dL) Mean values ± S.E.” value came out at 186.3 ± 20.8 mg/dL. Moreover, in assay [3], the “% Reduction total cholesterol” value is given as −21% and the “Total-cholesterol” value came out at 289.7 ± 21.0 mg/dL.
Consider `Oc1ccc(/C=C/c2cc(O)cc(O)c2)cc1` [Resveratrol, trans-3,4′,5-trihydroxystilbene], for which, in assay [1], the “% of increase HDL-cholesterol” value is listed as “+3%” and the “HDL-cholesterol” value is recorded as 23.7 ± 1.9 mg/dL. Moreover, in assay [2], the “% Reduction triglycerides” value is listed as −22% and the “Triglycerides (mg/dL) Mean values ± S.E.” value is listed as 157.9 ± 12.4 mg/dL. In assay [3], the “% Reduction total cholesterol” value is on record as −4% and the “Total-cholesterol” value was 352.1 ± 19.1 mg/dL.
For the molecule `Cc1ncc(CO)c(CO)c1O.Cl` [Vitamin B6], in assay [1], the “% of increase HDL-cholesterol” value is on record as “+5%” and the “HDL-cholesterol” value turned out to be 24.1 ± 2.5 mg/dL. Also, in assay [2], the “% Reduction triglycerides” value was −4% and the “Triglycerides (mg/dL) Mean values ± S.E.” value was 194.3 ± 16.7 mg/dL. Besides, in assay [3], the “% Reduction total cholesterol” value is −5% and the “Total-cholesterol” value is reported as 348.5 ± 18.5 mg/dL.
Turning to cobalamin [Vitamin B12], in assay [1], the “% of increase HDL-cholesterol” value is “+5%” and the “HDL-cholesterol” value is given as 24.3 ± 23 mg/dL. In assay [2], the “% Reduction triglycerides” value was −4% and the “Triglycerides (mg/dL) Mean values ± S.E.” value was 194.5 ± 17.4 mg/dL. Also, in assay [3], the “% Reduction total cholesterol” value is −4% and the “Total-cholesterol” value was found to be 352.1 ± 20.2 mg/dL.
